According to patent publication US11925678B2, “Methods for diagnosing and treating Alzheimer's disease” (Cava Healthcare Inc., priority 2011, dated 2024):
Read-outs that look alike come from different tables or passages of the source.

How the values were obtained:
animal models of AD = conditions: cited from earlier work
endothelial cells = conditions: cited from earlier work
[1] = test system: Tg2576 (Tg/+) and wild-type (+/+) mice; conditions: for tight junction abnormalities compared to PBS immunized controls (qualitative) / TJ expression in microvessels/capillaries (qualitative) / incidence of TJ disruption (percentage of blood vessels with abnormal TJ morphology) / TJ expression in larger vessels (qualitative): Tg2576 mice; for tight junction abnormalities compared to PBS immunized controls (qualitative): cortex and hippocampus; for TJ expression in microvessels/capillaries (qualitative): preventative and therapeutic immunization; for incidence of TJ disruption (percentage of blood vessels with abnormal TJ morphology): mean±SEM; for TJ expression in larger vessels (qualitative): preventative or therapeutic immunization
Method: (§2) Briefly, two separate vaccination strategies were carried out, therapeutic and preventative. Prior to immunization, mice were bled from the saphenous vein and serum collected. In the preventative approach, mice were vaccinated beginning at 6 weeks of age and sacrificed at 12 months. Mice used in the therapeutic strategy were vaccinated beginning at 11 months of age and sacrificed at 15 months. Abeta peptide was freshly prepared from lyophilized powder for each set of injections. For immunizations, 2 mg of abeta (human abeta1-40, Bachem) was added to 0.9 mL of deionized water and thoroughly mixed. Then 100 μL of 10×PBS was added to obtain a final 1×PBS concentration. The solution was vortexed and placed at 37° C. overnight until use the next day. Abeta1-40 (100 μg antigen per injection) or PBS (control) was mixed 1:1 (v/v) with complete Freund's adjuvant (CFA) for the first immunization. This was followed by a boost with abeta1-40 (100 μg) or PBS mixed 1:1 (v/v) with incomplete Freund's adjuvant (ICFA) at two weeks and monthly thereafter. From the fifth immunization onward, straight PBS or abeta were injected. Injections were performed i.p.
Dewaxed paraffin sections underwent antigen retrieval using a conventional stovetop pressure cooker using 20 mM Tris with 0.7 mM EDTA buffer (pH 9.0) at full steam for 2 minutes. Cooled slides were then incubated in blocking buffer (25% normal goat serum; 3% BSA; 0.3% Triton X-100, Sigma) for 1 hour at room temperature. Primary antibodies used included rabbit anti-ZO-1 (1:200, Invitrogen), mouse anti-ZO-1 (1:200, Invitrogen), rabbit anti-occludin (1:200, Invitrogen), rabbit anti-activated caspase-3 (1:1000, Imgenex), and mouse anti-human CD105 (1:20, DAKO). Primary antibody staining was performed overnight at 4C in staining buffer (10% normal goat serum; 3% BSA; 0.3% Triton X-100). Normal donkey serum was used when staining with goat primary antibodies. Secondary antibodies used were complimentary to the species of the primary conjugated with either Alexa Fluor dyes 488 or 568 (1:500, Invitrogen). Secondary antibody staining was performed at room temperature for 1 hour in staining buffer. TOTO-3 (1:10000, Invitrogen) was used for nuclear counterstaining. Sections were washed in PBS with 0.1% Tween-20 (Sigma) three times for 5 minutes each between staining steps. Stained sections were coverslipped using Fluoromount-G (Southern Biotech) and allowed to air dry in the dark overnight.
Brain sections were analyzed from paraffin blocks from every fifth section. Images taken on a Zeiss LSM510 Meta (Zeiss, Germany), were acquired with 16 slices, averaged four times, through the Z-plane using a 40×/1.3 oil-immersion Plan-Neofluor objective. The composite projected image was imported into Adobe Photoshop, at 600 dpi, and optimized for contrast and brightness. Quantitative analysis of tight junction morphology was analyzed according the methodology developed by Plumb et al. (Brain Pathol 12, 154-169). Confocal data sets represented approximately 100 cerebral blood vessels from both young and aged Tg2576 and littermate controls in the frontal cortex and hippocampus. Individual vessels were scored as either normal (1) or abnormal (0) for ZO-1 expression. Normal ZO-1 expression was judged as strong, continuous, intense and linear staining. In contrast, abnormal ZO-1 expression was judged as weak, punctate and/or discontinuous staining. […] To minimize the recording of incomplete or undulating vessels as abnormal, due to observed “gaps” in ZO-1 staining, evidence of vessel continuity was sought in the images. For example, the presence of stained nuclei (with TOTO-3) or punctate or diffuse ZO-1 remnants was used to localize the position of abnormal gaps along the vessel tract.

[2] = test system: Tg2576 and wild-type mice
Method: as §2
Tg2576 and wild-type mice immunized, preventatively or therapeutically, with either abeta or PBS were assessed for cerebrovascular leakage and TJ abnormalities by confocal microscopy. Mouse albumin was used as a marker for vascular leakage and was visualized as diffuse gradient staining emanating away from vessels FIG. 8b (white arrowhead).

Tg2576 mice [3] = conditions: cited from earlier work
Tg2576 mice [4] = test system: Tg2576 mice
Method: Briefly, two separate vaccination strategies were carried out, therapeutic and preventative. […] In the preventative approach, mice were vaccinated beginning at 6 weeks of age and sacrificed at 12 months. Mice used in the therapeutic strategy were vaccinated beginning at 11 months of age and sacrificed at 15 months. Abeta peptide was freshly prepared from lyophilized powder for each set of injections. For immunizations, 2 mg of abeta (human abeta1-40, Bachem) was added to 0.9 mL of deionized water and thoroughly mixed. Then 100 μL of 10×PBS was added to obtain a final 1×PBS concentration. The solution was vortexed and placed at 37° C. overnight until use the next day. Abeta1-40 (100 μg antigen per injection) or PBS (control) was mixed 1:1 (v/v) with complete Freund's adjuvant (CFA) for the first immunization. This was followed by a boost with abeta1-40 (100 μg) or PBS mixed 1:1 (v/v) with incomplete Freund's adjuvant (ICFA) at two weeks and monthly thereafter. From the fifth immunization onward, straight PBS or abeta were injected. Injections were performed i.p.
Aβ was imaged with a Zeiss LSM 710 Laser Scanning.

Tg2576 (Tg/+) mice = experiment: Microvessel density (MVD) by CD105 staining in immunized mice; type: in vivo, mouse; conditions: for microvessel density (MVD), ratio of TFA to total area of imaged field: CD105 staining, mean±SEM
Method: (§1) Injections were performed i.p.
Microvessel density (MVD) was quantified by confocal microscopy using the methods developed by Guo et al. (Angiogenesis 4, 187-191 with minor modifications). Using CD105 as a marker of angiogenic cerebrovasculature (Masliah et al. (2005) Neurology 64, 129-131), images of optimal fluorescent intensity were acquired and analyzed using the Zeiss LSM510 Meta software. Areas within the brain section containing high density (“hotspots”) (Bombois et al. (2007) Arch Neurol 64, 583-587) CD105 staining were imaged using the 20×/0.45 N-Achroplan objective using the confocal imaging parameters mentioned previously. The total fluorescence area (TFA) in μm^2 was integrated above background, by the software, for each hotspot. The average TFA from four different hotspots per mouse was quantified. The TFA was used as a numerical representation of the total microvessels stained by the CD105 antibody. The MVD of the imaged field was expressed as a ratio of the TFA to the total area of the image.
Microvessel density quantification: Microvessel density was quantified by confocal microscopy using the methods described previously Biron et al., PLoS ONE 6, e23789 (2011)). Using CD105 as a marker of angiogenic cerebrovasculature (Holley et al. Neurosci Lett 470, 65-70 (2010)), images of optimal fluorescent intensity were acquired and analyzed using the Zeiss LSM510 Meta software. Areas within the brain section containing high density (“hotspots”) CD105 staining were imaged using the 20×/0.45 N-Achroplan objective using the confocal imaging parameters mentioned previously. The total fluorescence area (TFA) in μm^2 was integrated above background, by the software, for each hotspot. The average TFA from four different hotspots per mouse was quantified. The TFA was used as a numerical representation of the total microvessels stained by the CD105 antibody. The microvascular density of the imaged field was expressed as a ratio of the TFA to the total area of the image.

Tg2576 mice [5] = experiment: Apoptosis by activated caspase-3 staining in immunized mice; type: in vivo, mouse
Method: as §1
An anti-activated caspase-3 antibody was used as a marker of apoptosis FIG. 9. […] PBS immunized Tg2576 mice, both preventative and therapeutic, had significant activated caspase-3 staining within the FIG. 9a cortex and hippocampus (not shown) that tended to surround probable abeta plaques. […] The overall density of activated caspase-3 staining in these mice was noted to be lower than the Tg2576 treated with abeta. […] Cortex activated caspase-3 staining appear similar in the abeta immunized Tg2576 to the wild-type variants.

[6] = mouse, in vivo
Method: Mice were terminally anesthetized with ketamine/xylazine (100 mg/kg; 10 mg/kg) and perfused with PBS for 5 minutes. Brains were then rapidly excised, olfactory bulbs and cerebellum removed, weighed and post-fixed in 4% paraformaldehyde for four days at 4° C. The brains were then imbedded in paraffin and sectioned serially at 5 μm. […] Average brain weights were compared amongst the immunized mice by comparing brain to body mass ratios.

[7] = Tg2576 mice, preventative and therapeutic

For C=C(c1ccc(C(=O)O)cc1)c1cc2c(cc1C)C(C)(C)CCC2(C)C [bexarotene], the memory performance (animal models of AD) is given as “increase memory performance”, the plaque burden (animal models of AD) is given as “reduce plaque burden” and the “angiogenesis (proliferation, adhesion, invasion and migration of endothelial cells)” value (endothelial cells) is given as “inhibits angiogenesis”.
For human abeta1-40, the “percentage of abnormal vascular TJ expression” value ([1]; Example 3, Tg/+ mice immunized preventatively from 6 weeks of age, neocortex and hippocampus) was about 10%, the “percentage of abnormal vascular TJ expression (TJ pathology)” value ([1]; Example 3, Tg/+ mice immunized therapeutically at 11 months of age, neocortex and hippocampus) was about 10% and the “tight junction abnormalities compared to PBS immunized controls (qualitative)” value [1] was “reduced tight junction abnormalities”. The “tight junction abnormalities compared to PBS immunized controls (qualitative)” value ([1]; listed as Abeta) was “markedly reduced TJ pathology”, the “tight junction abnormalities compared to PBS immunized controls (qualitative)” value ([1]; listed as Aβ) was “reduced tight junction abnormalities” and the “TJ expression in microvessels/capillaries (qualitative)” value [1] was “normal TJs”. The “TJ expression in microvessels/capillaries (qualitative)” value ([1]; listed as Aβ) was “normal ZO-1 expression in the capillaries”, the “incidence of TJ disruption (percentage of blood vessels with abnormal TJ morphology)” value ([1]; preventative immunization (6 weeks to 12 months), cortex) was 11.33±2.40% and the “incidence of TJ disruption (percentage of blood vessels with abnormal TJ morphology)” value ([1]; preventative immunization, hippocampus) was 11.91±1.73%. The “TJ expression in larger vessels (qualitative)” value [1] was “larger proportion of abnormal TJ expression”, the “TJ expression in larger vessels (qualitative)” value ([1]; listed as Aβ) was “some abnormal TJ pathology mainly in larger vessels” and the “incidence of TJ disruption (percentage of blood vessels with abnormal TJ morphology)” value ([1]; therapeutic immunization (11 to 15 months), cortex) was 10.40±0.81%. For the same molecule, the “incidence of TJ disruption (percentage of blood vessels with abnormal TJ morphology)” value ([1]; therapeutic immunization, hippocampus) was 11.00±2.26%, the “overall vascular leakage (qualitative)” value ([2]; Tg2576 mice, preventatively immunized (FIG. 8)) was “overall reduced vascular leakage” and the “vascular leakage in larger vessels (mouse albumin)” value ([2]; mouse, in vivo) was “periodic vascular leakage”. For the same molecule, the “vascular leakage in wild-type mice” value ([2]; mouse, in vivo) was “no vascular leakage”, the “plaque burdens and microgliosis” value (Tg2576 mice [3]; Tg2576 mice) was “significantly reduced” and the “immune response: anti-abeta antibody titres” value (Tg2576 mice [3]; mice immunized preventatively or therapeutically) was “increase in anti-abeta antibody titres”. For the same molecule, the “global integrity of the BBB” value (Tg2576 mice [3]; post-abeta immunized Tg2576 mice) was “improves significantly”, the “abeta deposition in cerebral capillaries” value (Tg2576 mice [4]; Tg2576 mice) was “No abeta deposition” and the “parenchymal Aβ plaques” value (Tg2576 mice [4]; Tg/+ mice preventatively immunized) was “complete elimination”. For the same molecule, the Aβ plaque pathology (Tg2576 mice [4]; Tg/+ mice therapeutically treated) was “dramatic decrease”, the “Aβ deposits compared to Tg/+, PBS (qualitative)” value (Tg2576 mice [4]; Tg/+ mice, therapeutic or preventative (FIG. 14)) was “general reduction of Aβ deposits” and the “vascular abeta deposition in larger vessels” value (Tg2576 mice [4]; mouse, in vivo) was “Mild vascular abeta deposition”. The “microvessel density (MVD), ratio of TFA to total area of imaged field” value (Tg2576 (Tg/+) mice; Tg2576 mice immunized preventatively) was 0.1972±0.0075, the “microvessel density (MVD), ratio of TFA to total area of imaged field” value (Tg2576 (Tg/+) mice; Tg2576 mice immunized therapeutically (after disease onset)) was 0.2180±0.0130 and the “microvascular density compared to PBS controls (qualitative)” value (Tg2576 (Tg/+) mice; [7]) was “reduced microvascular density”. For the same molecule, the “distribution of activated caspase-3 staining” value (Tg2576 mice [5]; Tg2576 mice) was “hippocampal restricted caspase-3 staining”, the “activated caspase-3 staining (qualitative, overall)” value (Tg2576 mice [5]; Tg2576 mice (FIG. 9)) was “reduced activated caspase-3 staining” and the “activated caspase-3 staining in cortex” value (Tg2576 mice [5]; [7]) was “limited caspase-3 staining”. The “average brain to body weight ratio (difference between groups)” value [6] was “did not reach significance”.
